Common to all, as to assay: MIC, liquid medium test tube series dilution test
Experiment [1] concerns Psdm. aerug. Bonn. In kind it is cell-based, Pseudomonas aerug. As to conditions: 24 hours, 37°C. The method in brief: (§1)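 Broth tube serial dilution in complete nutrient medium; tubes read after 24 hours' incubation at 37°C. MIC taken as the concentration in the non-turbid tube of the dilution series, expressed in units/ml.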
The test system of experiment [2] is Psdm. aerug. Walter. In kind it is cell-based, Pseudomonas aerug. Particulars: 24 hours, 37°C. The method in brief: as §1
For experiment [3], the system named is E. coli A 261. The experiment is classed as cell-based. Particulars: E. coli A 261, 24 hours, 37°C. In short, it runs like this:
as §1

Experiment [4] relates to E. coli C 165. The experiment is classed as cell-based. As to conditions: E. coli C 165, 24 hours, 37°C. The method in brief:
as §1

The subject of experiment [5] is E. coli 14. In kind it is cell-based. Particulars: E. coli 14, 24 hours, 37°C. In short, it runs like this: as §1
The subject of experiment [6] is Klebsiella 63. In kind it is cell-based. Particulars: Klebsiella 63, 24 hours, 37°C. In short, it runs like this: as §1
In experiment [7] the test system is Streptoc. faec. ATCC 9790. The experiment is classed as cell-based. As to conditions: Strep. faec. (Enterococcus) ATCC 9790, 24 hours, 37°C. In short, it runs like this: as §1
Experiment [8] relates to Klebsiella K 10. The experiment is classed as cell-based. As to conditions: Klebsiella K 10, 24 hours, 37°C. In short, it runs like this:
as §1

For experiment [9], the system named is E. coli 183/58. The experiment is classed as cell-based. Particulars: E. coli 183/58, 24 hours, 37°C. In short, it runs like this: as §1
The test system of experiment [10] is Staph. aureus 133. In kind it is cell-based, Staphylococcus aureus. Particulars: Staph. aureus 133, 24 hours, 37°C. In short, it runs like this: as §1
In experiment [11] the test system is Proteus vulg. 3400. The experiment is classed as cell-based, Proteus vulgaris. As to conditions: Proteus vulg. 3400, 24 hours, 37°C. In short, it runs like this:
as §1

Experiment [12] concerns Proteus vulg. 1017. In kind it is cell-based, Proteus vulgaris. Particulars: Proteus vulg. 1017, 24 hours, 37°C. The method in brief:
as §1

Some results are limits rather than exact numbers.

We go through eight compounds from patent US3974140A, “Ureidoacetamido-penicillins” (Bayer Aktiengesellschaft, priority 1970, dated 1976).

As for `CCCCCCCCCCCCCCCCCC(=O)N(C)C(=O)N[C@@H](C(=O)N[C@@H]1C(=O)N2[C@@H]1SC(C)(C)[C@@H]2C(=O)O)c1ccccc1` [Example 71, Sodium D(-)-α-(3-stearinoyl-3-methyl-ureido)-benzylpenicillin], the MIC in experiment [1] is given as greater than 400 units/ml; in experiment [2], 400 units/ml; in experiment [3], greater than 400 units/ml; in experiment [4], greater than 400 units/ml; in experiment [5] it was greater than 400 units/ml; in experiment [6] it was greater than 400 units/ml. The MIC is greater than 400 units/ml in experiment [7]; greater than 400 units/ml in experiment [8]; greater than 400 units/ml in [9]; 200 units/ml in experiment [10]; greater than 400 units/ml in [11]; greater than 400 units/ml in experiment [12].
Regarding `CC1(C)S[C@@H]2[C@H](NC(=O)[C@H](NC(=O)N(CCCl)C(=O)CCC(Cl)(Cl)Cl)c3ccccc3)C(=O)N2[C@H]1C(=O)O` [Example 72, Sodium D(-)-α-(3-γ-trichlorobutyryl-3-β-chloroethyl-ureido)-benzylpenicillin], the MIC worked out at 50 units/ml in experiment [1]; 400 units/ml in experiment [2]; 400 units/ml in [3]; 25 units/ml in experiment [4]; 6.25 units/ml in experiment [5]; 50 units/ml in experiment [6]. Also, the MIC in [7] is listed as 100 units/ml; in experiment [8], 100 units/ml; in experiment [9], 12.5 units/ml; in [10] it was less than 0.78 units/ml; in [11], 200 units/ml; in experiment [12] it was 50 units/ml.
For `CCCCCCCCCCCCCCCCN(C(C)=O)C(=O)N[C@@H](C(=O)N[C@@H]1C(=O)N2[C@@H]1SC(C)(C)[C@@H]2C(=O)O)c1ccccc1` [Example 74, Sodium D(-)-α-(3-acetyl-3-hexadecyl-ureido)-benzylpenicillin], the MIC in experiment [1] was greater than 400 units/ml; in experiment [2], greater than 400 units/ml; in [3], greater than 400 units/ml; in experiment [4], greater than 400 units/ml; in experiment [5], 100 units/ml; in experiment [6], greater than 400 units/ml. For the same compound, the MIC in [7] was greater than 400 units/ml; in experiment [8] it was greater than 400 units/ml; in experiment [9] it was greater than 400 units/ml; in experiment [10] it was 25 units/ml; in experiment [11] it was greater than 400 units/ml; in experiment [12] it was greater than 400 units/ml.
For `CN(C(=O)CCCCl)C(=O)N[C@@H](C(=O)N[C@@H]1C(=O)N2[C@@H]1SC(C)(C)[C@@H]2C(=O)O)c1ccccc1` [Example 88, Sodium D(-)-α-(3-γ-chlorobutyryl-3-methyl-ureido)-benzylpenicillin], the MIC came out at 25 units/ml in experiment [1]; 50 units/ml in [2]; 400 units/ml in experiment [3]; 6.25 units/ml in experiment [4]; 1.56 units/ml in experiment [5]; 25 units/ml in experiment [6]. Further, the MIC in [7] is listed as 50 units/ml; in [8], 50 units/ml; in experiment [9] it was 3.12 units/ml; in experiment [10] it was less than 0.78 units/ml; in experiment [11], 6.25 units/ml; in [12], 12.5 units/ml.
As to `CN(C(=O)CCC(Cl)(Cl)Cl)C(=O)N[C@@H](C(=O)N[C@@H]1C(=O)N2[C@@H]1SC(C)(C)[C@@H]2C(=O)O)c1ccccc1` [Example 89, Sodium (-)-α-(3-γ-trichlorobutyryl-3-methyl-ureido)-benzylpenicillin], the MIC came out at 25 units/ml in experiment [1]; 50 units/ml in [2]; 400 units/ml in [3]; 6.25 units/ml in experiment [4]; 1.56 units/ml in experiment [5]; 12.5 units/ml in [6]. The MIC in [7] is given as 100 units/ml; in [8], 25 units/ml; in [9], 1.56 units/ml; in experiment [10], less than 0.78 units/ml; in experiment [11], 12.5 units/ml; in [12], 3.12 units/ml.
As for `CC(=O)N(C(=O)N[C@@H](C(=O)N[C@@H]1C(=O)N2[C@@H]1SC(C)(C)[C@@H]2C(=O)O)c1ccccc1)c1ccccc1` [Example 130, Sodium D(-)-α-(3-acetyl-3-phenyl-ureido)-benzylpenicillin], the MIC is given as 200 units/ml in [1]; 200 units/ml in [2]; greater than 400 units/ml in [3]; 100 units/ml in [4]; 12.5 units/ml in [5]; 50 units/ml in experiment [6]. In addition, the MIC is listed as 50 units/ml in experiment [7]; 25 units/ml in experiment [8]; 100 units/ml in [9]; less than 0.8 units/ml in experiment [10]; 400 units/ml in [11]; 200 units/ml in [12].
On to `CN(C(=O)N[C@@H](C(=O)N[C@@H]1C(=O)N2[C@@H]1SC(C)(C)[C@@H]2C(=O)O)c1ccccc1)C(=O)c1ccccc1[N+](=O)[O-]` [Example 140, Sodium D(-)-α-(3-o-nitrobenzoyl-3-methyl-ureido)-benzylpenicillin], for which the MIC came out at 12.5 units/ml in [1]; 12.5 units/ml in [2]; 50 units/ml in [3]; 3.1 units/ml in experiment [4]; 0.8 units/ml in [5]; 25 units/ml in experiment [6]. Also, the MIC in [7] is on record as 12.5 units/ml; in [8] it was 12.5 units/ml; in experiment [9], 1.6 units/ml; in experiment [10], less than 0.8 units/ml; in experiment [11], 6.25 units/ml; in [12], 3.1 units/ml.
Turning to `CN(C(=O)N[C@@H](C(=O)N[C@@H]1C(=O)N2[C@@H]1SC(C)(C)[C@@H]2C(=O)O)c1ccccc1)C(=O)c1ccc(Cl)cc1Cl` [Example 142, Sodium D(-)-α-(3-[2,4-dichlorobenzoyl]-3-methyl-ureido)-benzylpenicillin], the MIC was found to be 25 units/ml in experiment [1]; 12.5 units/ml in [2]; 50 units/ml in experiment [3]; 3.1 units/ml in [4]; 0.8 units/ml in experiment [5]; 25 units/ml in [6]. Besides, the MIC in experiment [7] is 25 units/ml; in [8], 12.5 units/ml; in experiment [9], 1.6 units/ml; in [10] it was less than 0.8 units/ml; in experiment [11] it was 12.5 units/ml; in [12], 3.1 units/ml.
